This note sets out measurements from ChEMBL document CHEMBL4002645, “Discovery of Potent, Selective, and Structurally Novel Dot1L Inhibitors by a Fragment Linking Approach” (ACS Med Chem Lett, 2017).

pIC50, pKi: −log10 of the molar value. Where only a bound is given, the exact number is not on record here.

Experiment [1] concerns the target T1, Histone-lysine N-methyltransferase, H3 lysine-79 specific (Homo sapiens, UniProt Q8TEK3). Nature of the experiment: Inhibition of DOT1L (2 to 416 residues) (unknown origin) using biotinylated nucleosomes as substrate preincubated for 30 mins followed by substrate addition in presence of [3H-Me]SAM by scintillation proximity assay. Conditions: for pIC50: read-out: IC50.
Target sequence in this assay (Q8TEK3 whole entry, the tested form may be a part): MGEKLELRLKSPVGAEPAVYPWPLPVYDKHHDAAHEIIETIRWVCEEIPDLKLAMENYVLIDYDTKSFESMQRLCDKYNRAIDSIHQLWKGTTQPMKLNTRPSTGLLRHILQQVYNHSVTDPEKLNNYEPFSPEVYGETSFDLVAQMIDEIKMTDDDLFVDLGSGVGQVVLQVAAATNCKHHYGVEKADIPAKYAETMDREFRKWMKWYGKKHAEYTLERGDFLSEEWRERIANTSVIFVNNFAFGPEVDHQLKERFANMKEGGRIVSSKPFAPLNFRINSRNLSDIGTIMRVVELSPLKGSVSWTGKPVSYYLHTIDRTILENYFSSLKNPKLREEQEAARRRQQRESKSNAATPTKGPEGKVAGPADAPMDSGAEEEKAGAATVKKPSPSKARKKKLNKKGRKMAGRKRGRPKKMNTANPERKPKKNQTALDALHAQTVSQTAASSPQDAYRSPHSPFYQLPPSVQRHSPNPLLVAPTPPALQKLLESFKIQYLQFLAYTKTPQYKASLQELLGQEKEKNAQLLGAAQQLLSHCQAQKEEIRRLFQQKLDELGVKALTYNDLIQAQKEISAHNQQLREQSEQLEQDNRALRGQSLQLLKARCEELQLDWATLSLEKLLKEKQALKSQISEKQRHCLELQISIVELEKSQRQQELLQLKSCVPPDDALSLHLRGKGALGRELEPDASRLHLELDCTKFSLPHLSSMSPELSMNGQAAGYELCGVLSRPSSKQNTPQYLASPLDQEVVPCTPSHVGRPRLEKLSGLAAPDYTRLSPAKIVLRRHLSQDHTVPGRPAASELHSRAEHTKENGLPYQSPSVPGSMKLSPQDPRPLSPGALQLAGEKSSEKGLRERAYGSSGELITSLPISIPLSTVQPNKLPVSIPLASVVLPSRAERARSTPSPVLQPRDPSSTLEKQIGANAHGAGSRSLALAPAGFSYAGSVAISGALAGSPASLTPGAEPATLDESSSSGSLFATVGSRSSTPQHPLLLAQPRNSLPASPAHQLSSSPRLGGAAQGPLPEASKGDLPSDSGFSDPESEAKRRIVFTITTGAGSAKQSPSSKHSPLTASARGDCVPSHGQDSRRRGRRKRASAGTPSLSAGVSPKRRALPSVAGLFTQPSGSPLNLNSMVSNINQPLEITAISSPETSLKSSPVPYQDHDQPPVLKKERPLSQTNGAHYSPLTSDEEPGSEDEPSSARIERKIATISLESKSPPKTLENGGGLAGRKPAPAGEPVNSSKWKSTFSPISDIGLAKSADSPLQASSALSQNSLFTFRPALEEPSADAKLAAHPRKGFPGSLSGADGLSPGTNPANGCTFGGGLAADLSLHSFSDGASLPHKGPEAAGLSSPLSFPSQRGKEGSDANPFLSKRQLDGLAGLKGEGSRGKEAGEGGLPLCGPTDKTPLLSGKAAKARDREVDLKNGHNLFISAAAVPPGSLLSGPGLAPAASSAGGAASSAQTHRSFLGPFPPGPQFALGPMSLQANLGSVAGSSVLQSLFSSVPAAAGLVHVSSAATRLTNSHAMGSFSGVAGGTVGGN

In experiment [2] the target is T1, Histone-lysine N-methyltransferase, H3 lysine-79 specific. Nature of the experiment: Inhibition of DOT1L in human MOLM13 cells assessed as suppression of HoxA9 gene after 72 hrs by luciferase reporter gene assay. It is filed as cell-based. (Reporter assays use an easily measured gene product as a stand-in for the process of interest.)
Target sequence in this assay (Q8TEK3 whole entry, the tested form may be a part): as above
Experiment [3] has the same target. Nature of the experiment: Competitive inhibition of DOT1L (2 to 416 residues) (unknown origin) using biotinylated nucleosomes as substrate preincubated for 30 mins followed by substrate addition in presence of [3H-Me]SAM by scintillation proximity assay. For orientation: In a scintillation proximity assay essentially only radioactivity close to the scintillant gives light.
Target sequence in this assay (Q8TEK3 whole entry, the tested form may be a part): as above

The subject of a further experiment is MV4-11. Briefly: Antiproliferative activity against human MV4-11 cells harboring MLL-AF4 treated for 6 hrs measured after 8 days by Celltiter-Glo reagent based assay. It is filed as functional, cell-based. For orientation: ATP-based viability assays read luminescence as a measure of living cells.
Experiment [4] has as its target T1, Histone-lysine N-methyltransferase, H3 lysine-79 specific. Briefly: Binding affinity to human Avi-tagged biotinylated DOT1L (2 to 416 residues) assessed as target residence time at 100 nM by surface plasmon resonance assay.
Target sequence in this assay (Q8TEK3 whole entry, looked up, the tested form may be a part): as the sequence (Q8TEK3 whole entry, the tested form may be a part) above
Experiment [5] has the same target. Briefly: Inhibition of DOT1L in human HeLa cells assessed as reduction in H3K79me2 level after 72 hrs by ELISA. It is filed as cell-based.
Target sequence in this assay (Q8TEK3 whole entry, the tested form may be a part): as above

As a reminder, the pIC50 is the negative decadic logarithm of the IC50, by convention in mol/L. As to `N[C@@H]1CCCN(c2ncnc3[nH]ccc23)C1`, the pIC50 in experiment [1] was 3.62.

As to `Nc1ncnc2c1ncn2[C@@H]1O[C@H](CO)[C@@H](O)[C@H]1O` [ADENOSINE], the pIC50 in experiment [1] was 4.00. As a reminder, the pKi is the Ki on a negative log10 scale, so that one unit is a factor of ten. As for `Cc1ncccc1-c1c(Cl)sc2ccc(NC(=O)NCC(=O)NCCCN(C)[C@@H]3CCCN(c4ncnc5[nH]ccc45)C3)cc12`, the pIC50 in experiment [2] was 7.77; in the experiment with MV4-11 it was 8.30; in experiment [1], greater than 10.00; in experiment [5] it was 8.52. Besides, in experiment [3], the pKi is 11.70. In experiment [4], the TIME was greater than 5 h.

As to `NC(=O)CNC(=O)Nc1ccc2ccn(-c3ccccc3Cl)c2c1`, the IC50 in experiment [1] (read-out: pIC50 (converted)) was 7.94 µM. `O=C(CNC(=O)Nc1ccc2ccn(-c3ccccc3Cl)c2c1)NCCCN[C@@H]1CCCN(c2ncnc3[nH]ccc23)C1`: in experiment [1], the pIC50 is 8.40. As for `CN[C@@H]1CCCN(c2ncnc3[nH]ccc23)C1`, in experiment [1], the pIC50 is 3.85. On the same count and under the same terms, the result for `CN(CCCNC(=O)CNC(=O)Nc1ccc2ccn(-c3ccccc3Cl)c2c1)[C@@H]1CCCN(c2ncnc3[nH]ccc23)C1` reads 9.82. Consider `O=C(CNC(=O)Nc1ccc2ccn(-c3ccccc3Cl)c2c1)NCCCCN[C@@H]1CCCN(c2ncnc3[nH]ccc23)C1`, for which the pIC50 in experiment [1] was 8.40. `CC(C)N(C[C@H]1O[C@@H](n2cnc3c(N)ncnc32)[C@H](O)[C@@H]1O)[C@H]1C[C@@H](CCc2nc3cc(C(C)(C)C)ccc3[nH]2)C1` [PINOMETOSTAT] had a pIC50 with MV4-11 of 7.82. Also, in experiment [4], the TIME is greater than 5 h.
